Laboratory results taken from patent US20140303242A1, “Sparstolonin B Based Pharmaceutical Agent to Treat Pathological Angiogensis” (University of South Carolina, priority 2013, published 2014).

Key:
HUVECs [1] = assay: Transwell insert cell migration assay (VEGF-induced); assay type: cell-based, human; settings: 8 h
Description: The cell invasion assay was performed with a Transwell insert system (6.5 mm diameter inserts with 8.0 μm pores in a polycarbonate membrane situated in wells of 24 well polystrene, tissue culture treated plates, Corning Incorporated, Corning, N.Y.). The Transwell inserts were coated with 0.1% gelatin for 30 min and incubated in low serum medium for 1 h. Cultured HUVECs were trypsinized and then resuspended in low serum medium (0.5% fetal bovine serum without endothelial cell mitogen), and added at 50,000 cells per insert. The cells were allowed to adhere to the inserts for 30 min. Next, various concentrations of SsnB (0.0001, 0.001, 0.01, 0.1, 1, 10, and 100 μM) or vehicle control (0.1% DMSO) were added to the Transwell inserts. After 30 min, the medium in the lower chamber for the experimental groups was replaced with low serum medium containing 10 ng/ml VEGF and thus establishing a chemoattractant gradient between the top insert and lower chamber. For the negative control group, the medium was replaced with low serum medium (0.5% fetal bovine serum). The plates were incubated for 8 h at 37° C. During the incubation, the cells migrated through the pores of the Transwell insert towards the lower chamber. […] Cells were counted from four random fields observed with a 10× objective lens. […]

HCAECs = assay: Real time RT-PCR gene expression (HCAECs); assay type: cell-based, human; settings: 24 h
Description: After a careful analysis of the microarray data, key genes (CDC6, CCNE2, KITLG, ALDH3A1, CCNB1, CDC2, HMMR, DIAPH3, ANLN, and CDKN3) were chosen for quantitative real-time PCR (qRT-PCR) to verify the gene expression results. HCAECs and HUVECs were exposed to SsnB or vehicle control for 24 h (as previously described in the microarray section). For RT-PCR, RNA was isolated from the cells with the RNeasy Mini kit as described previously. After forward and reverse primer kits (Qiagen, Valencia, Calif.) were selected, the RNA was amplified. The one-step RT-PCR reactions were completed on the BioRad iCycler thermal cycler system in the Instrumentation Resource Facility at the USC School of Medicine. The expression levels were normalized, and RNA levels were quantified.
Microarray data analysis, including data normalization (robust multi-array average), identification of differentially expressed genes (comparative analyses with dChip software), and heat map construction, was carried out to determine how SsnB affects gene expression and affected pathways (n=2 for HUVECs and n=3 for HCAECs). After a careful analysis of the microarray data, several key genes were chosen for qRT-PCR to verify the gene expression results. The genes were chosen based on the following criteria: fold change ≧2, p<0.05, unpaired t-test with a false discovery rate approximating 0%, appearing in both data sets (HUVECs and HCAECs), and gene function relating to cell proliferation and/or angiogenesis. For qRT-PCR, the expression levels were normalized to the housekeeping gene GAPDH, and RNA levels were compared between groups with the ΔΔCt method.

HUVECs [2] = assay: Live/Dead cell viability assay; assay type: cell-based; settings: HUVECs, 1, 10, 100 μM, 4 h
Description: A Live/Dead assay (Invitrogen, Eugene, Oreg.) was utilized to investigate the effect of SsnB on cell viability. The Matrigel tube formation experiment was repeated with HUVECs in chamber slides at a concentration of 20,000 cells per well. The cells were treated with SsnB (1, 10, or 100 μM) or Vehicle Control (0.1% DMSO) as described above. After four hours of incubation, the slides were removed. A chamber slide containing HUVECs treated with 70% methanol for 30 minutes was used as a control for dead cell staining. The slides were aspirated and washed with PBS, and EthD-1 and calcein AM were added to each well. The plates were incubated in the dark, and images were taken with a light microscope at 10× magnification.

HMVECs = assay: Matrigel tube formation assay (cardiac HMVECs); assay type: cell-based, human; settings: 1, 10, 100 μM, 4 h
Description: To initially determine if SsnB inhibited pro-angiogenic cell functions, a tube formation assay with Matrigel was performed. Growth factor reduced Matrigel (BD Biosciences, Bedford, Mass.) was added to the wells of a 96 well polystyrene culture plate and incubated at 37° C. for 30 minutes. Cells (HUVECs, HCAECs, or HMVECs at passage 2 to 4) were added to each well to reach a final number of 20,000 cells per well. SsnB was added to the wells at a concentration of 1, 10, or 100 μM. Endothelial cell medium with DMSO (0.1%) was used as a vehicle control. Each group contained 4 replicates. The plates were placed in an incubator for 4 h. During the incubation, the endothelial cells formed elongated structures called cords, also known as tubes. After 4 h, neutral buffered formalin was added to fix the cells. Pictures of three non-overlapping fields were taken from each well. The lengths of single cell endothelial cords were measured with Image-Pro Plus (Media Cybernetics, Silver Spring, Md.), and the sum of tube lengths for each well was determined. The average total length and standard deviation for each group were determined, and the appropriate statistical tests (ANOVA and Newman-Keuls) were completed. The tube formation assay was replicated three times for both HUVECs and HCAECs. The assay was also repeated with cardiac HMVECs.

HUVECs [3] = assay: Cytotoxicity on HUVECs; assay type: cell-based, human; settings: concentrations up to 100 μM
[4] = SsnB vs vehicle control, normalized to GAPDH

`O=c1occ2c3c(ccc(O)c13)Oc1ccc(O)cc1-2` [SsnB, Sparstolonin B] was tested, and the “VEGF-induced cell migration inhibition, high concentrations” value (HUVECs [1]; between 0.1 and 100 μM) was “leveled off”, the VEGF-induced cell migration (HUVECs [1]; concentrations between 0.0001 and 0.1 μM, p<0.05) was “dose-dependent inhibition” and the “ALDH3A1 expression (qRT-PCR)” value (HCAECs) was 4620 % of controls. For the same compound, the “CCNE2 gene expression after SsnB exposure (qRT-PCR)” value (HCAECs) was 57 % of controls, the “CDC6 gene expression after SsnB exposure (qRT-PCR)” value (HCAECs) was 14 % of controls and the “KITLG expression (qRT-PCR)” value (HCAECs) was 260 % of controls. The “ALDH3A1 PCR 2^ΔΔCt value” (HCAECs; [4]) was 46.2, the “ANLN PCR 2^ΔΔCt value” (HCAECs; [4]) was 0.13 and the “CCNB1 PCR 2^ΔΔCt value” (HCAECs; [4]) was 0.13. For the same compound, the “CCNE2 PCR 2^ΔΔCt value” (HCAECs; [4]) was 0.57, the “CDC2 PCR 2^ΔΔCt value” (HCAECs; [4]) was 0.17 and the “CDC6 PCR 2^ΔΔCt value” (HCAECs; [4]) was 0.14. The “CDKN3 PCR 2^ΔΔCt value” (HCAECs; [4]) was 0.22, the “DIAPH3 PCR 2^ΔΔCt value” (HCAECs; [4]) was 0.26 and the “HMMR PCR 2^ΔΔCt value” (HCAECs; [4]) was 0.062. For the same compound, the “KITLG PCR 2^ΔΔCt value” (HCAECs; [4]) was 2.6, the “cell viability (live/dead assay)” value (HUVECs [2]) was “no effect on cell viability” and the “cardiac HMVEC tube formation” value (HMVECs) was “dose-dependent inhibition”. The cytotoxic effects (HUVECs [3]) was “does not exhibit cytotoxic effects”.
